# Results as given in US5627171A, “Sphingosine-1-phosphate/trimethylsphingosine composition” (Oncomembrane, Inc., priority 1994, dated 1997).
# Where two headings read alike, the source gives them in different places.
# Key:
# B16BL6 melanoma cells = test system: B16BL6 melanoma cells; design: key: +++: + graded effectiveness; ++: + graded effectiveness; + graded effectiveness; - not effective; conditions: cited from earlier work
# platelet activation = test system: platelet activation; design: key: +++: + graded effectiveness; ++: + graded effectiveness; + graded effectiveness; - not effective; conditions: cited from earlier work
# protein kinase C = test system: protein kinase C; design: key: +++: + graded effectiveness; ++: + graded effectiveness; + graded effectiveness; - not effective; conditions: cited from earlier work
# BL6 cell line = assay: Spontaneous metastasis model: subcutaneous BL6 cells, lung colonization; format: in vivo; conditions: mice, BL6 cells s.c.; liposomes i.v. on days 5, 10, 15, 20, 25, 30; primary tumor excised day 21; assessed day 35
# Description: As an example, mice were injected subcutaneously with the metastatic and invasive BL6 cell line (Hart et al., Amer. J. Path., 97, 587, 1979; Poote et al., Canc. Res., 42, 2770, 1982) (1×10^5 cells in 0.05 ml of Dulbecco-modified Eagle's medium). A single intravenous injection of the 10:1 liposomal TMS/Sph-1-P composition described hereinabove was administered on days 5, 10, 15, 20, 25 and 30. The primary tumor was excised on day 21 and lung colonization was assessed on day 35. […] Controls comprised liposomes containing TMS alone, liposomes containing Sph-1-P alone, liposomes containing medium or medium alone with no liposomes.
# Then the instant composition encapsulated in liposomes is administered to the hosts, see FIG. 9A.
# (§1) In either model, the number of lung tumor colonies is ascertained macroscopically and microscopically following a course of repeated liposome administration.
# tumor cells = assay: Experimental metastasis model: intravenous injection of tumor cells, lung tumor colonies; format: in vivo; conditions: tumor cells i.v.; number of lung tumor colonies
# Text: as §1
# [1] = preincubation with free derivative
Structure (SMILES),Inhibition of metastasis (B16BL6 melanoma cells; [1]),Inhibition of PA (platelet activation),PKC inhibition (protein kinase C),Inhibition of metastasis (B16BL6 melanoma cells; liposomal formulation was used),Lung colony number (lung colonization) (BL6 cell line),Effect in the experimental metastasis model (tumor cells),Inhibition of metastasis (B16BL6 melanoma cells; free derivative and liposomal formulation were used),Inhibition of metastasis (B16BL6 melanoma cells; no footnote on formulation)
C[N+](C)(C)[C@@H](CO)[C@H](O)/C=C/CCCCCCCCCCCCC(=O)O [Carboxy TMS],-,-,-,,,,,
C[N+](C)(C)[C@@H](CO)[C@H](O)c1ccccc1 [NTPS],-,-,-,,,,,
CCCCCCCCCCCCCCC[C@@H](O)[C@H](CO)[N+](C)(C)C [DHTMS],,++,+++,+,,,,
COC(=O)CCCCCCCCCCCC/C=C/[C@@H](O)[C@H](CO)[N+](C)(C)C [Methylcarboxy TMS],-,-,-,,,,,
"CCCCCCCCCCCCC/C=C/[C@@H](O)[C@@H](N)COP(=O)(O)O [Sph-1-P, sphingosine-1-phosphate]",,,,,no different in effect from medium alone or liposomes containing medium only,,,
"CCCCCCCCCCCCC/C=C/[C@@H](O)[C@H](CO)[N+](C)(C)C [TMS, N,N,N-trimethylsphingosine]",,+++,+++,,,strong effect,+++,
CCCCCCCCCCCCCC#C[C@@H](O)[C@H](CO)[N+](C)(C)C [4-alkyn-TMS],,++,+++,,,,,+
CCCCCCCCCCCCCC(F)/C=C/[C@H](CO)[N+](C)(C)C (some centres unmarked) [5F-TMS],,+++,+++,,,,,+++
